“And” between values parts separate entries of the source, which are not always exact repeats. Identical values can stand only once. Like-named read-outs stand apart in the source and are kept apart here.

In experiment [1] the test system is Bacillus subtilis NCIM 2724. As to the method:
(§1) Two control stains are used: one having a cellulase activity (Bacillus subtilis NCIM 2724) the other one not having any activity (Escherichia coli BL21). Both strains are cultivated in an LB medium at 30° C. with stirring (240 rpm) for 18 h. For each strain, the culture is centrifuged (2 500 g, 5 min) and the pellet of cells is washed twice in 5 mL of an LB medium (centrifugation at 2 500 g, 5 min). This pellet is used for inoculation at OD=0.005 a culture in an inducing medium (Dubos medium with 2.5 g/L of carboxymethyl-cellulose) containing the fluorogenic substrate 8 and 2.5 μM (B. subtilis NCIM 2724) or 10 μM (E. coli BL21) of sulforhodamine. Both of these cell suspensions are used with perfluorinated oil in order to produce an emulsion consisting of two populations of droplets each containing one of the described suspensions. The blue and red fluorescences of the droplets are measured individually, on a sample of the emulsion, during production (t=0 h) and reinjection after having incubated the emulsion for 24 h at 30° C.
(§2) The graphs a and b, shown in FIG. 5, are two dimensional histograms of the red (in abscissas, RFU) and blue (in ordinates, RFU) fluorescence intensities measured on the emulsion during its production (a) and its reinjection after incubation fro 24 h at 30° C. (b). The population density is illustrated by a color code varying from pink (1 droplet) to red (>1,000 droplets) according to a logarithmic scale.

A further experiment deals with Escherichia coli BL21. To be noted: inactive strain. As to the method: as §1, §2
The subject of another experiment is cellulase. To be noted: substrate 0.25 mM in inducing Dubos medium with carboxymethyl-cellulose; 30° C, 24 h; excitation/emission 388/455 nm. As for the experimental part: (§3) Different control strains are cultivated in an LB medium at 30° C. with stirring (240 rpm) for 18 h. For each strain, the culture is centrifuged (2,500 g, 5 min) and the pellet of cells is washed twice in 5 mL of LB medium (centrifugation at 2,500 g, 5 min). This pellet is used for inoculating at OD=0.005 a culture in an inducing medium (Dubos medium with 2.5 g/L of carboxymethyl-cellulose) containing the fluorogenic substrate (8 or 10) at 0.25 mM. The culture is incubated at 30° C. without stirring for 24 h. Culture supernatant samples are taken at different incubation times in order to be able to follow the occurrence of cellulase or β-glucosidase activities in the culture medium. The occurrence of these activities is followed by measurement of the fluorescence on the culture supernatants in microplates with excitation and emission wavelengths of 388 nm and 455 nm.

Experiment [2] concerns β-glucosidase. The following applies: substrate 0.25 mM in inducing Dubos medium with carboxymethyl-cellulose; 30° C, 24 h; excitation/emission 388/455 nm. As for the experimental part:
as §3

Experiment [3] deals with β-glucosidase. To be noted: substrate 0.25 mM, phosphate buffer pH 7.5, 30° C, 120 minutes. As for the experimental part: (§4) The enzymatic kinetics are achieved in a microplate on soluble enzymatic extracts (A, B, C and D) rich in activities of the cellulase and xylanase type. These extracts are diluted 10 times (substrate 18, FIG. 1) or 100 times (substrate 10, 12 and 14, FIG. 2) in a 50 mM phosphate buffer, NaCl 150 mM, pH=7.5. A volume of 20 μL of diluted enzymatic extract is added to 20 μL of fluorogenic substrate (10, 12, 14 or 18) at 0.25 mM in a 50 mM phosphate buffer, NaCl 150 mM, pH=7.5. The kinetics are achieved at 30° C. The enzymatic hydrolysis of the different fluorogenic substrate is followed for 120 minutes by measuring the fluorescence with excitation and emission wavelengths of: 339 nm and 452 nm for the substrates 10, 12 and 14; 375 nm and 510 nm for the substrate 18.

For another experiment, the system named is β-xylosidase. The following applies: extracts diluted 100 times; substrate 0.25 mM; phosphate buffer pH 7.5; 30° C; 120 minutes; excitation/emission 339/452 nm. As for the experimental part: as §4
A further experiment concerns xylanase. The following applies: extracts diluted 100 times; substrate 0.25 mM; phosphate buffer pH 7.5; 30° C; 120 minutes; excitation/emission 339/452 nm. As to the method:
as §4

Consider `O=c1cc(CS(=O)(=O)[O-])c2cc(F)c(O[C@@H]3O[C@H](CO)[C@@H](O[C@@H]4O[C@H](CO)[C@@H](O)[C@H](O)[C@H]4O)[C@H](O)[C@H]3O)c(F)c2o1.[Na+]` [substrate 8, sodium β-D-cellobioside 6,8-difluoro-7-hydroxycoumarin-4-methanesulfonate], for which the “change of blue fluorescence of the droplets” value is on record as “blue fluorescence significantly increased” in experiment [1] (after 24 h of incubation at 30° C, active strain) and “do not have any increase of their blue fluorescence” in the experiment on Escherichia coli BL21 (after 24 h of incubation at 30° C). In addition, the “detection of an activity of the cellulase type on microorganisms within an emulsion” value in experiment [1] (emulsion generated by a microfluidic system, 24 h at 30° C) is “allows detection of an activity of the cellulase type”. Further, the “% of positive droplets” value was 27% and 27.61% in experiment [1] (reinjection (t = 24 h) after incubation at 30° C, active strain, 2.5 μM sulforhodamine, threshold 37.56 RFU blue fluorescence); 0.26% with Escherichia coli BL21 (reinjection (t = 24 h) after incubation at 30° C, 10 μM sulforhodamine, threshold 37.56 RFU blue fluorescence). Moreover, in the experiment on cellulase, the “detection of enzymatic activity of the cellulase type on cultures of microorganisms” value was “allow detection of the enzymatic activities”.
With `O=c1cc(CS(=O)(=O)[O-])c2cc(F)c(O[C@@H]3O[C@H](CO)[C@@H](O)[C@H](O)[C@H]3O)c(F)c2o1.[Na+]` [substrate 10, sodium β-D-glucoside 6,8-difluoro-7-hydroxycoumarin-4-methanesulfonate], the “detection of enzymatic activity of the β-glucosidase type on cultures of microorganisms” value in the experiment on β-glucosidase [2] is “allow detection of the enzymatic activities”. In the experiment on β-glucosidase [3] (extracts diluted 100 times, excitation/emission 339/452 nm), the “detection of enzymatic activity of type β-glucosidase by fluorescence” value was “allow detection of the enzymatic activities”.
With `O=c1cc(CS(=O)(=O)[O-])c2cc(F)c(O[C@@H]3OC[C@@H](O)[C@H](O)[C@H]3O)c(F)c2o1.[Na+]` [substrate 12, sodium β-D-xyloside 6,8-difluoro-7-hydroxycoumarin-4-methanesulfonate], in the experiment on β-xylosidase, the “detection of enzymatic activity of type β-xylosidase by fluorescence” value is listed as “allow detection of the enzymatic activities”.
On to `O=c1cc(CS(=O)(=O)[O-])c2cc(F)c(O[C@@H]3OC[C@@H](O[C@@H]4OC[C@@H](O)[C@H](O)[C@H]4O)[C@H](O)[C@H]3O)c(F)c2o1.[Na+]` [substrate 14, sodium β-D-xylobioside 6,8-difluoro-7-hydroxycoumarin-4-methanesulfonate], for which the “detection of enzymatic activity of xylanase type by fluorescence” value with xylanase is “allow detection of the enzymatic activities”.
Regarding `O=c1cc(CS(=O)(=O)[O-])c2c(cc(O[C@@H]3O[C@H](CO)[C@@H](O)[C@H](O)[C@H]3O)c3ccccc32)o1.[Na+]` [substrate 18, sodium β-D-glucoside 5,6-benzo-7-hydroxycoumarin-4-methanesulfonate], the “detection of enzymatic activity of type β-glucosidase by fluorescence” value with β-glucosidase [3] (extracts diluted 10 times, excitation/emission 375/510 nm) is reported as “allow detection of the enzymatic activities”.
